Laboratory results: patent US11229664B2, “Treatment of myelosuppression” (priority 2012, dated 2022)
Several values for one entry are separate records, joined by “and”; a condition that tells them apart may be missing. Equal entries are not always repeated. Where two headings read alike, the source gives them in different places.

Key:
anti-thrombin III = anti-thrombin III (Homo sapiens, UniProt P01008); conditions: cited from earlier work
[1] = for Deaths: N = 10 per group
Description: All experiments were conducted on female athymic nude mice (Hsd:Athymic Nude-Foxn1nu) supplied by Harlan (Indianapolis, Ind.). Mice were received at four weeks of age, 12-15 grams in weight, and were acclimated for seven days prior to handling. The mice were housed in microisolator cages (Lab Products, Seaford, Del.) and maintained under specific pathogen-free conditions. All procedures were carried out under appropriate institutional guidelines for animal care.
Seven days following inoculation, tumors were measured using calipers and tumor weight was calculated using the animal study management software. […] Body weights were recorded when the mice were randomized and were taken twice weekly thereafter in conjunction with tumor measurements, on each of Days 1, 4, 8, 11, 15, 18, 22, 26, 30, 33, and 36.
The study was terminated when the vehicle control reached an endpoint of 1500 mg, on Day 36.

[2] = format: in vivo, human
Description: Treatment consisted of a series of 28-day cycles, wherein the last day of one cycle (e.g., day 28, cycle 1) was immediately followed by the first day of the next cycle (e.g., day 1, cycle 2). In each 28-day treatment cycle, patients were dosed at days 1, 8, and 15 (three weeks of medication followed by one week of rest) as follows. First, nab-paclitaxel at 125 mg/m^2 was administered as an intravenous infusion over 30 minutes. […] Nab-paclitaxel and gemcitabine therapy was given as described in the prescribing information for Abraxane® and Gemzar®. See also, Von Hoff et al., 2011, J. Clinical Oncology 29:1-7).
As a substantially non-anticoagulant heparinoid, ODSH can be administered at a dose that is greater than the fully anticoagulant dose of unfractionated heparin, without concern for anticoagulant effect, as shown in the Results below.

clotting time (aPTT) = test: aPTT assay, clotting time after administration to a subject; format: in vivo; conditions: administered to a subject at a (dose equivalent to a) fully-anticoagulating dose of unfractionated heparin; normal about 27 to 35 seconds
Text: In various preferred embodiments, the PF4-interacting heparinoid is substantially nonanticoagulant. Anti-coagulation activity can be determined using assays known in the art, e.g., activated partial thromboplastin time (aPTT), prothrombin time, anti-Xa clotting and amidolytic assays. See, e.g., U.S. Pat. No. 5,668,118, Example IV; Fryer et al., 1997, J. Pharmacol. Exp. Ther. 282: 208-219, at page 209; Rao et al., 2010, Am. J. Physiol. 299:C97-C110, at page C98; United States Pharmacopeial Convention 1995 (for USP anticoagulant assay and amidolytic assay).
In contrast to unfractionated heparin, ODSH is substantially non-anticoagulating: administered to a subject at a dose that is equivalent to a fully-anticoagulating dose of unfractionated heparin, the clotting time measured in an aPTT assay is no greater than 45 seconds, and typically in the upper range of normal, where normal clotting time ranges from about 27 to 35 seconds. By comparison, unfractionated heparin administered to a subject at a fully anticoagulant dose causes time to clot to range from about 60 to about 85 seconds in an aPTT assay. Another measure of ODSH's anticoagulant activity is its anti-Xa activity which can be determined in an assay carried out using plasma treated with Russell viper venom. […] Whether or not a heparinoid is substantially non-anticoagulating can be determined using any of the above assays.

platelets = test: Clinical trials of ODSH adjunctive to induction and consolidation therapy in AML (platelet counts, need for transfusion); format: in vivo, human
Description: A clinical trial is conducted to confirm the therapeutic advantage of ODSH administered adjunctively to induction and consolidation therapy and subsequent allogeneic or autologous bone marrow transplantation in the treatment of acute myelogenous leukemia (AML). Subjects included in the trial are subjects diagnosed with AML who are undergoing induction and consolidation therapy. Subjects are randomly assigned to either a control group (receiving only induction and consolidation therapy) or a treatment group (receiving adjunctive administration of ODSH). ODSH is administered as a continuous infusion (0.375 mg/kg/hr). Subjects in each arm of the trial are evaluated for platelet counts and the need for platelet transfusion. Further metrics evaluated include measurement of circulating levels of PF4 and rate of granulocyte recovery.
A second clinical trial is conducted to confirm the advantage of ODSH administered adjunctively to induction and consolidation chemotherapy in the treatment of AML. The trial is an open-label pilot study often patients newly diagnosed with AML and not previously treated for AML. Patient treatment regimens are as follows. […] Subjects are evaluated for the degree and duration of thrombocytopenia, based on platelet counts and need for transfusion.

[3] = Table 13, first column group, headed Day 22
[4] = Table 13, second column group, headed Day 26
[5] = ten mice per group, BxPC-3 xenograft study

Sequence of anti-thrombin III (P01008 33-464, species assumed): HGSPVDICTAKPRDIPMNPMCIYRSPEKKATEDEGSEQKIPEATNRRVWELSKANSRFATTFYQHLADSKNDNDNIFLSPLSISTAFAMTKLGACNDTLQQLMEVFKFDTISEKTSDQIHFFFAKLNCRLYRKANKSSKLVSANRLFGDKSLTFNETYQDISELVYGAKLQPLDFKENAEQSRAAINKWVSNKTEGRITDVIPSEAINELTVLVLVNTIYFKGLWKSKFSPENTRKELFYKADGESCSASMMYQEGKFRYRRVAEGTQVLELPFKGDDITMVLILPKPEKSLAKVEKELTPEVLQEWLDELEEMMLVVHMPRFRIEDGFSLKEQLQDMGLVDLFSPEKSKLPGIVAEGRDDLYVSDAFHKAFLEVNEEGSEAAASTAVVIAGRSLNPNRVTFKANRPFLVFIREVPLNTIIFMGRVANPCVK

Substance: substantially 2-O, 3-O desulfated heparin [ODSH]
- Kd, affinity for anti-thrombin III (anti-thrombin III): ~4000 µg/mL
- Kd (anti-thrombin III; read-out: Kd, affinity for anti-thrombin III): ~339 µM
- Day by which the mice recovered their weight ([1]; BxPC-3 xenograft study): ≤ 22 days
- Day on which maximum weight loss was reached ([1]; BxPC-3 xenograft study): 11 days
- Tolerability / toxicity of the treatment regimen (in words) ([1]; BxPC-3 xenograft study, doses of Table 1): well-tolerated
- Average Weight ([1]; Day 1): 21.54 g
- % Weight Loss or Gain ([1]; Day 4): −1.67%
- Average Weight ([1]; Day 4): 21.18 g
- % Weight Loss or Gain ([1]; Day 8): −1.67%
- Average Weight ([1]; Day 8): 21.18 g
- % Weight Loss or Gain ([1]; Day 11): −2.74%
- Average Weight ([1]; Day 11): 20.95 g
- % Weight Loss or Gain ([1]; Day 15): −2.14%
- Average Weight ([1]; Day 15): 21.08 g
- % Weight Loss or Gain ([1]; Day 18): −2.32%
- Average Weight ([1]; Day 18): 21.04 g
- % Weight Loss or Gain ([1]; Day 22 (Table 12)): 0.09%
- Average Weight ([1]; Day 22 (Table 12)): 21.56 g
- % Weight Loss or Gain ([1]; Day 26 (Table 12)): 2.79%
- Average Weight ([1]; Day 26 (Table 12)): 22.14 g
- % Weight Loss or Gain [1, 3]: 4.60%
- Average Weight [1, 3]: 22.53 g
- % Weight Loss or Gain [1, 4]: 4.27%
- Average Weight [1, 4]: 22.46 g
- Deaths ([1]; Total deaths on or before Day 26): 0
- Deaths ([1]; Total deaths on or before Day 36): 0
- Maximum weight loss ([1]; body weight of mice, BxPC-3 xenograft study): 2.7%
- Starting Weight ([1]; group mean body weight at start, dose, schedule and route per group as in table): 21.54 g
- % Weight Loss or Gain ([1]; mouse, in vivo): 4.92%
- Average Weight ([1]; mouse, in vivo): 22.60 g
- Mice with bruising on the tails or abdomen (site of injection) [1, 5]: All ten
- Mice with swelling of the tail [1, 5]: One of the ten
- Effect on patient weight ([2]; ODSH adjunct to gemcitabine/nab-paclitaxel): minimum weight loss or even some weight gain
- Weight ([2]; individual patients, ODSH adjunctive to gemcitabine and nab-paclitaxel, Cycle 6 Day 1): 176 pounds and 133 pounds and 157 pounds
- Clotting time in aPTT assay (clotting time (aPTT)): ≤ 45 s
- Thrombocytopenia in AML patients on induction and consolidation chemotherapy (second trial) (platelets; ODSH 4 mg/kg bolus then 0.25 mg/kg/hr, cytarabine + idarubicin): attenuates thrombocytopenia
- Thrombocytopenia in AML patients on induction and consolidation therapy (first trial) (platelets; ODSH continuous infusion 0.375 mg/kg/hr, adjunctive): attenuates thrombocytopenia
